Reference: patent US12544360B2, “Pharmaceutical composition for preventing or treating coronavirus disease-19” (priority 2020, dated 2026)

Assays:
[1] = system: SARS-CoV-2; test: microbe, parasite or virus in culture; format: cell-based; settings: for antiviral activity: human lung cells (Calu-3)
[2] = system: SARS-CoV-2; test: microbe, parasite or virus in culture; format: cell-based; settings: for IC50: Severe acute respiratory syndrome coronavirus 2, in Primates, Vero cells (monkey kidney cells) infected with SARS-CoV-2
[3] = Severe acute respiratory syndrome coronavirus 2, Calu-3 cells (human lung cells) infected with SARS-CoV-2

| SMILES | IC50 [1, 3] [µM] | antiviral activity [1] | IC50 [2] [µM] | also measured |
| --- | --- | --- | --- | --- |
| CCN1CCN(c2cc(-c3ccc(F)cc3)c3c(n2)CCCCCC3)CC1 [Blonanserin] | > 50 | – | – | – |
| Cc1cc(O)c2c(c1)C(=O)c1cc(O)cc(O)c1C2=O [Emodin] | – | exhibited antiviral activity | – | antiviral activity ([2]; Vero cells): significant antiviral activities |
| Cc1cc(O)c2c(=O)c3c(O)cc(O)c4c5c(O)cc(O)c6c(=O)c7c(O)cc(C)c8c1c2c(c34)c(c78)c65 [Hypericin] | – | – | – | IC50 ([1]; Severe acute respiratory syndrome coronavirus 2, Calu-3): > 50 µM |
| COc1ncc(-c2ccc3nccc(-c4ccnnc4)c3c2)cc1NS(=O)(=O)c1ccc(F)cc1F [Omipalisib] | 0.01 | exhibited antiviral activity | 0.49 | – |
| CCN(CC)CCCC(C)Nc1ccnc2cc(Cl)ccc12 (stereo not drawn) [chloroquine] | – | – | 8.89 | – |
| Cc1cccc(C)c1OCC(=O)N[C@@H](Cc1ccccc1)[C@@H](O)C[C@H](Cc1ccccc1)NC(=O)[C@H](C(C)C)N1CCCNC1=O [lopinavir] | – | – | 11 | – |
